# Experimental data from patent US5721266A, “Substituted imidazolinyl-imidazolines as antagonists of SH-2 binding and therapeutic uses thereof” (Warner-Lambert Company, priority 1994, dated 1998).
# pIC50: −log10 of the molar value. Where two headings read alike, the source gives them in different places.
# How the values were obtained:
# [1] = biological target: T1, [35S]abl SH-2 / activated EGF receptor (Homo sapiens, UniProt P00519); experiment: in vitro inhibition of [35S]abl SH-2 interactions with activated EGF receptor; format: binding; details: for IC50: [35S]abl SH-2 binding to activated EGF receptor, read-out: IC50
# T1 construct: containing the SH-2 domain of abl; made in house; host or cells: abl SH-2 fusion: bacteria, labelled in vivo with 35S; EGFR partner: EGF-treated 3T3 cells transfected with human EGFR, immunoprecipitated
# T1 sequence (P00519 127-217 limits assumed): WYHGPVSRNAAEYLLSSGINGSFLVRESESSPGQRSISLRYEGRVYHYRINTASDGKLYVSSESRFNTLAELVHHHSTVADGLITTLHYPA
# Protocol: The ability of some of the preferred compounds of the present invention to inhibit SH-2 interactions with activated tyrosine kinase receptors was measured using an in vitro biological assay. The test assesses the ability of a test compound to inhibit the interaction of [^35 S]abl SH-2 with activated EGF receptors, or with other receptor tyrosine kinases.
# A bacterial glutathione-S-transferase fusion protein, containing the SH-2 domain of abl, is labelled in vivo with ^35 S. Phosphorylated EGFR is purified from EGF-treated 3T3 cells transfected with the human EGFR by precipitation with anti-EGFR antisera. The resulting immune complex is bound to protein A--Sepharose beads. Binding of the ^35 S labelled abl fusion protein (77 nM) to the purified EGFR beads complex (approximately 1 μg of receptor/assay) is allowed to proceed to equilibrium (30 minutes) in a total volume of 0.4 mL, in the presence of the test compounds. Bound ^35 S fusion protein is separated from free by filtration through 0.65 μ DUPP filters, and radioactivity is determined by scintillation counting.
# Results of the binding study are expressed in Table 1 as IC50 values, i.e., the concentration of test compound required to inhibit [^35 S]abl SH-2 interactions with the activated EGF receptor.
# [2] = system: Rat Aortic Smooth Muscle Cells (RASMC); experiment: [3H]Thymidine Incorporation Assay, smooth muscle cell proliferation stimulated by PDGF; format: cell-based; details: 22 hours
# Protocol: (§1) SH-2 tyrosine kinase inhibitors may block the signal transduction pathways for platelet derived growth factor ("PDGF") and fibroblast growth factor ("FGF"), which have been implicated in the control of smooth muscle cell proliferation. The ability of some of the preferred compounds of the present invention to inhibit smooth muscle cell (SMC) proliferation stimulated by PDGF or serum was measured using the biological assay discussed below.
# (§2) Rat Aortic Smooth Muscle Cells (RASMC) were plated into a 24-well plate (30,000 cells/well) in DMEM with 10% Fetal Bovine Serum (FBS). After 4 days cells reached confluence and were made quiescent by incubation in DMEM/F12 medium (Gibco) containing 0.2% FBS for another 2 days. Incubation with the growth factors, PDGF-BB and bFGF as well as FBS, and test compound was carried out in 0.5 mL/well serum-substituted medium (DMEM/F12+1% CPSR-2 from Sigma) for 22 hours. After 18 hours, 0.25 μCi/well [^3 H]thymidine was added. Four hours later the incubation was stopped by removing the radioactive media, washing the cells twice with 1 mL cold phosphate-buffered saline, and then washing 2 times with cold 5% trichloroacetic acid. The acid-insoluble fraction was lysed in 0.75 mL 0.25N NaOH and the radioactivity determined by liquid scintillation counting.
# (§3) Smooth muscle cells were isolated from the thoracic aorta of rats (RASMC) and explanted according to the method of Ross, et al., Cell Biology 50:172-186 (1971). Cells were grown in Dulbecco's modified Eagle's medium (DMEM, Gibco) containing 10% fetal calf serum (FBS, Hyclone, Logan, Utah), 1% glutamine (Gibco), and 1% penicillin/streptomycin (Gibco). Cells were identified as smooth muscle cells by their "hill and valley" growth pattern and by fluorescent staining with a monoclonal antibody specific for SMC α-actin (Sigma). RASMC were used between passages 5 and 20 for all experiments. Test compounds were prepared in dimethylsulfoxide (DMSO) in order to achieve consistency in the vehicle and to ensure compound solubility. Appropriate DMSO controls were simultaneously evaluated with the test compounds.
# (§4) The results of the cellular proliferation assay are expressed in Table 2 as IC50 values, i.e., the concentration of test compound required to inhibit [^3 H]thymidine incorporation into smooth muscle cells.
# [3] = system: Rat Aortic Smooth Muscle Cells (RASMC); experiment: [3H]Thymidine Incorporation Assay, smooth muscle cell proliferation stimulated by serum; format: cell-based; details: 22 hours
# Protocol: as §1, §2, §3, §4
# MDA-468 = experiment: inhibition of growth of tumor cells, MDA-468; format: cell-based; details: estrogen independent breast adenocarcinoma, overexpresses EGF receptor
# MDA-231 = experiment: inhibition of growth of tumor cells, MDA-231; format: cell-based; details: Homo sapiens, MDA-MB-231, breast adenocarcinoma, moderate EGFR and erbB2
# HCT-8 = experiment: inhibition of growth of tumor cells, HCT-8; format: cell-based; details: human colon carcinoma, 18,000 EGF receptors/cell
# K562 cell line [4] = experiment: viability of the K562 cell line (FIGS. 1 and 2); format: cell-based, human
# Protocol: (§5) In one screen, K562 human erythroleukemic cells were seeded at 6×10^4 cells/mL in RPMI 1640 medium containing 10% fetal bovine serum. These cells score positively for the Philadelphia chromosome, and are known to be transformed by the bcr-abl oncogene. At the time of seeding, test compound, or vehicle (DMSO), were added. Cells were counted 4 days after seeding using a hemocytometer.
# (§6) In this example, an experiment was conducted to determine the inhibition of the growth of tumor cells from the K562 cell line upon exposure to Test Compound A specified in Example 3. The screen was conducted as described in Example 3.
# L1210 = experiment: inhibition of growth of tumor cells, L1210; format: cell-based; details: mouse lymphocytic leukemia
# NIH 2.2 = experiment: inhibition of cell growth, NIH 2.2; format: cell-based; details: mouse fibroblast, no EGF receptor
# A431 = experiment: inhibition of growth of tumor cells, A431; format: cell-based; details: A-431, human epidermoid carcinoma, overexpresses EGF receptor
# K562 cell line [5] = experiment: proliferation of K562 cell line (FIG. 3); format: cell-based, human; details: FIG. 3, wide range of concentrations
# Protocol: as §5, §6
# K562 = experiment: inhibition of growth of tumor cells, K562; format: cell-based; details: 96 h, human chronic myelogenous leukemia, expresses p210 bcr-abl, 4 days
# Protocol: as §5
# The results of this experiment for a representative compound of the present invention appears in Table 3. Test Compound A is N,N'-decamethylenebis[2-amino-1-(2-imidazolin-2-yl)-2-imidazoline, dihydroiodide. The inhibition of growth of tumor cells is expressed as IC50 values; i.e., the concentration of test compound required to inhibit growth of the tumor cells by 50%.
# MCF-7 = experiment: inhibition of growth of tumor cells, MCF-7; format: cell-based; details: Homo sapiens, MCF7, estrogen dependent breast adenocarcinoma, 3000 EGF receptors/cell, some erbB2
# NIH EGF-R = experiment: inhibition of cell growth, NIH EGF-R; format: cell-based; details: mouse fibroblast, high expression of EGF receptor
# KG-1A = experiment: inhibition of growth of tumor cells, KG-1A; format: cell-based; details: human acute myelogenous leukemia, no bcr-abl
# KG-1A cell line = experiment: proliferation of KG-1A cell line (FIG. 3); format: cell-based, human; details: FIG. 3, wide range of concentrations
# Protocol: [The procedure below names another cell line; the source lists this cell line under the same test.] as §5, §6
# MOLT-4 = experiment: inhibition of growth of tumor cells, MOLT-4; format: cell-based; details: human acute lymphoblastic leukemia, no bcr-abl
# SWISS 3T3 = experiment: inhibition of cell growth, SWISS 3T3; format: cell-based; details: mouse fibroblast
IC50 ([1]; values in μM),Structure (SMILES),pIC50 [2],pIC50 [3],other results
27 µM,C(CCNC1=NCCN1C1=NCCN1)CNC1=NCCN1C1=NCCN1,,,
10 µM,"C(CN=C1NCCN1C1=NCCN1)CN1CCN(CCCN=C2NCCN2C2=NCCN2)CC1 [2-(3-{4-[3-(4,5,4',5'-Tetrahydro-3H,1'H-[1,2']biimidazolyl-2-ylideneamino)-propyl]-piperazin-1-yl}-propylimino)-2,3,4,5,4',5'-hexahydro-1'H-[1,2']biimidazolyl]",,,
1.32 µM,"CCCCCCCCCCCCCCCCCNC1=NCCN1C1=NCCN1 [2-(Heptadecylamino)-1-(2-imidazolin-2-yl)-2-imidazoline, monohydroiodide]",> 6.00,> 6.00,
50 µM,"CCCCCCCCCCCCCN=C1NCCN1C1=NCCN1 [(4,5,4',5'-Tetrahydro-3H,1'H-[1,2']biimidazolyl-2-ylidene)-tridecyl-amine]",,,
10 to 100 µM,"CCCCCCCNC1=NCCN1C1=NCCN1 [drawing 7, 2-(Heptylamino)-1-(2-imidazolin-2-yl)-2-imidazoline, monohydroiodide]",,,

# The next lines start with the molecule.
Structure (SMILES),IC50 ([1]; values in μM),pIC50 [2],pIC50 [3],other results
C(CCNC1=NCCN1C1=NCCN1)CCNC1=NCCN1C1=NCCN1,259 µM,4.13,< 4.00,
C(CCCNC1=NCCN1C1=NCCN1)CCNC1=NCCN1C1=NCCN1,,,,IC50 ([1]; values in nM): 0.1 µM
C(CCCNC1=NCCN1C1=NCCN1)CCCNC1=NCCN1C1=NCCN1,38 µM,,,
C(CCCCNC1=NCCN1C1=NCCN1)CCCNC1=NCCN1C1=NCCN1,33 µM,4.40,4.21,
C(CCCCNC1=NCCN1C1=NCCN1)CCCCNC1=NCCN1C1=NCCN1,,,,pIC50 [1]: 5.89
C(CCCCCNC1=NCCN1C1=NCCN1)CCCCCNC1=NCCN1C1=NCCN1,,,,IC50 ([1]; values in nM): 0.6 µM
C(CCCCCCNC1=NCCN1C1=NCCN1)CCCCCNC1=NCCN1C1=NCCN1,,,,pIC50 [1]: 5.92
C(CCCCCNC1=NCCN1C1=NCCN1)CCCCNC1=NCCN1C1=NCCN1 [Compound A],,5.55,5.30,"pIC50 (MDA-468): 6.05; IC50 ([1]; values in nM): 0.05 µM; pIC50 (MDA-231): 4.85; pIC50 (HCT-8): 5.18; viability of the K562 cell line (K562 cell line [4]; FIG. 1, increased concentrations): steadily decline; viability of the K562 cell line over time (K562 cell line [4]; FIG. 2, 3 μM versus 0.3 μM, compared against a control): substantially greater effect at decreasing the viability; pIC50 (L1210): 6.00; pIC50 (NIH 2.2): < 4.60; pIC50 (A431): 5.36; growth rate of the K562 cell line (K562 cell line [5]): substantially decreased; pIC50 (K562): 6.22; pIC50 (MCF-7): 5.11; pIC50 (NIH EGF-R): < 4.60; pIC50 (KG-1A): 4.00; growth rate of the KG-1A cell line (KG-1A cell line): only slightly decreased; pIC50 (MOLT-4): 5.68; pIC50 (SWISS 3T3): < 4.30"
"C1CCCCCC(NC2=NCCN2C2=NCCN2)CCCCC1 [drawing 11, 2-Cyclododecylamino-1-(2-imidazolin-2-yl)-2-imidazoline, monohydroiodide]",> 100 µM,,,
"CCCCCCCNC1=NCCN1C1=NCCN1 [drawing 21, 2-(Heptylamino)-1-(2-imidazolin-2-yl)-2-imidazoline, monohydroiodide]",,5.52,5.19,
"C1CCCCCC(NC2=NCCN2C2=NCCN2)CCCCC1 [drawing 25, 2-Cyclododecylamino-1-(2-imidazolin-2-yl)-2-imidazoline, monohydroiodide]",,> 6.00,5.96,
